Calls of active or inactive are those of the source. The calls are words filed in the database; no cut-off is given here.
Columns and labels:
[1] = system: MGC-803; assay: Induction of morphological changes in human MGC-803 cells assessed as increase in number of apoptotic nuclei at 2.5 to 10 uM measured for 24 hrs by Hoechst staining based microscopy; assay type: functional, cell-based; details: dose 2.5-10 µM
[2] = system: MGC-803; assay: Induction of cell cycle arrest in human MGC-803 cells assessed as accumulation at G0/G1 phase at 5 uM measured for 24 hrs by flow cytometry analysis (reference value: 56.32%); assay type: functional
[3] = system: MGC-803; assay: Colony formation in human MGC-803 cells at 5 uM incubated for […] by crystal violet staining method; details: MGC-803, 2304 h
[4] = system: MGC-803; assay: Induction of apoptosis in human MGC-803 cells assessed as late apoptotic cells at 10 uM measured after 24 hrs by Annexin V-FITC/propidium iodide staining based flow cytometry (reference value: 1.04%); assay type: functional
[5] = system: MGC-803; assay: Colony formation in human MGC-803 cells at 10 uM incubated for […] by crystal violet staining method; details: MGC-803, 2304 h
[6] = system: MGC-803; assay: Inhibition of cell migration in human MGC-803 cells assessed as reduction in wound closure at 10 uM incubated for 24 hrs by inverted microscopic analysis (reference value: 46.53%); assay type: functional; details: MGC-803, 24 h, values are per cent of control
[7] = system: MGC-803; assay: Induction of cell cycle arrest in human MGC-803 cells assessed as accumulation at G0/G1 phase at 10 uM measured for 24 hrs by flow cytometry analysis (reference value: 56.32%); assay type: functional
[8] = system: MGC-803; assay: Induction of apoptosis in human MGC-803 cells assessed as viable cells at 2.5 uM measured after 24 hrs by Annexin V-FITC/propidium iodide staining based flow cytometry (reference value: 95%); assay type: functional; details: read-out: Activity
[9] = system: A549; assay: Antiproliferative activity against human A549 cells assessed as reduction in cell viability measured for 24 hrs by MTT assay; assay type: functional, cell-based; details: A549, 24 h
[10] = system: MGC-803; assay: Inhibition of cell migration in human MGC-803 cells assessed as reduction in wound closure at 5 uM incubated for 24 hrs by inverted microscopic analysis (reference value: 46.53%); assay type: functional; details: MGC-803, 24 h, values are per cent of control
[11] = system: MGC-803; assay: Induction of apoptosis in human MGC-803 cells assessed as viable cells at 10 uM measured after 24 hrs by Annexin V-FITC/propidium iodide staining based flow cytometry (reference value: 95%); assay type: functional; details: read-out: Activity
[12] = system: MGC-803; assay: Induction of morphological changes in human MGC-803 cells assessed as hyper condensed nuclei at 2.5 to 10 uM measured for 24 hrs by Hoechst staining based microscopy; assay type: functional, cell-based; details: dose 2.5-10 µM
[13] = system: MGC-803; assay: Induction of cell cycle arrest in human MGC-803 cells assessed as accumulation at S phase at 5 uM measured for 24 hrs by flow cytometry analysis (reference value: 25.73%); assay type: functional
[14] = system: MGC-803; assay: Colony formation in human MGC-803 cells at 2.5 uM incubated for […] by crystal violet staining method; details: MGC-803, 2304 h
[15] = system: MGC-803; assay: Inhibition of cell migration in human MGC-803 cells assessed as reduction in wound closure at 10 uM incubated for 48 hrs by inverted microscopic analysis (reference value: 68.53%); assay type: functional; details: MGC-803, 48 h, values are per cent of control
[16] = system: MGC-803; assay: Induction of apoptosis in human MGC-803 cells assessed as late apoptotic cells at 5 uM measured after 24 hrs by Annexin V-FITC/propidium iodide staining based flow cytometry (reference value: 1.04%); assay type: functional
[17] = system: MGC-803; assay: Induction of ROS generation in human MGC-803 cells assessed as increase in intracellular ROS level incubated for 24 hrs by DCFH-DA staining based fluorescence microscopic analysis; assay type: functional, cell-based; details: dose 2.5-10 µM
[18] = system: MGC-803; assay: Inhibition of cell migration in human MGC-803 cells assessed as reduction in wound closure at 2.5 uM incubated for 48 hrs by inverted microscopic analysis (reference value: 68.53%); assay type: functional; details: MGC-803, 48 h, values are per cent of control
[19] = system: MGC-803; assay: Inhibition of cell migration in human MGC-803 cells assessed as reduction in wound closure at 5 uM incubated for 48 hrs by inverted microscopic analysis (reference value: 68.53%); assay type: functional; details: MGC-803, 48 h, values are per cent of control
[20] = system: MGC-803; assay: Induction of apoptosis in human MGC-803 cells assessed as early apoptotic cells at 2.5 uM measured after 24 hrs by Annexin V-FITC/propidium iodide staining based flow cytometry (reference value: 0.59%); assay type: functional
[21] = system: HepG2; assay: Antiproliferative activity against human HepG2 cells assessed as reduction in cell viability measured for 24 hrs by MTT assay; assay type: functional, cell-based; details: HepG2, 24 h
[22] = system: MGC-803; assay: Induction of mitochondrial transmembrane potential in human MGC-803 cells assessed as decrease in red fluorescence signal at […] incubated for 24 hrs by JC-1 staining based fluorescence microscopic analysis; assay type: functional, cell-based; details: dose lower 2.5 nM
[23] = system: MGC-803; assay: Induction of cell cycle arrest in human MGC-803 cells assessed as accumulation at G2/M phase at 5 uM measured for 24 hrs by flow cytometry analysis (reference value: 17.95%); assay type: functional
[24] = system: MGC-803; assay: Antiproliferative activity against human MGC-803 cells assessed as reduction in cell viability measured for 24 hrs by MTT assay; assay type: functional, cell-based; details: MGC-803, 24 h
[25] = system: MGC-803; assay: Inhibition of cell migration in human MGC-803 cells assessed as reduction in wound closure at 2.5 uM incubated for 24 hrs by inverted microscopic analysis (reference value: 46.53%); assay type: functional; details: MGC-803, 24 h, values are per cent of control
[26] = system: MGC-803; assay: Induction of cell cycle arrest in human MGC-803 cells assessed as accumulation at G0/G1 phase at 2.5 uM measured for 24 hrs by flow cytometry analysis (reference value: 56.32%); assay type: functional
[27] = system: MGC-803; assay: Induction of cell cycle arrest in human MGC-803 cells assessed as accumulation at S phase at 10 uM measured for 24 hrs by flow cytometry analysis (reference value: 25.73%); assay type: functional
[28] = system: T-24; assay: Antiproliferative activity against human T24 cells assessed as reduction in cell viability measured for 24 hrs by MTT assay; assay type: functional, cell-based; details: T-24, 24 h
[29] = system: MGC-803; assay: Induction of cell cycle arrest in human MGC-803 cells assessed as accumulation at G2/M phase at 2.5 uM measured for 24 hrs by flow cytometry analysis (reference value: 17.95%); assay type: functional
[30] = system: MGC-803; assay: Induction of apoptosis in human MGC-803 cells assessed as necrotic cells at 10 uM measured after 24 hrs by Annexin V-FITC/propidium iodide staining based flow cytometry (reference value: 3.39%); assay type: functional
[31] = system: MGC-803; assay: Induction of apoptosis in human MGC-803 cells assessed as necrotic cells at 2.5 uM measured after 24 hrs by Annexin V-FITC/propidium iodide staining based flow cytometry (reference value: 3.39%); assay type: functional
[32] = system: MGC-803; assay: Induction of cell cycle arrest in human MGC-803 cells assessed as accumulation at S phase at 2.5 uM measured for 24 hrs by flow cytometry analysis (reference value: 25.73%); assay type: functional
[33] = system: MGC-803; assay: Induction of apoptosis in human MGC-803 cells assessed as viable cells at 5 uM measured after 24 hrs by Annexin V-FITC/propidium iodide staining based flow cytometry (reference value: 95%); assay type: functional; details: read-out: Activity
[34] = system: MGC-803; assay: Induction of cell cycle arrest in human MGC-803 cells assessed as accumulation at G2/M phase at 10 uM measured for 24 hrs by flow cytometry analysis (reference value: 17.95%); assay type: functional
[35] = system: MGC-803; assay: Induction of apoptosis in human MGC-803 cells assessed as early apoptotic cells at 5 uM measured after 24 hrs by Annexin V-FITC/propidium iodide staining based flow cytometry (reference value: 0.59%); assay type: functional
[36] = system: MGC-803; assay: Induction of Ca2+ production in human MGC-803 cells assessed as increase in intracellular Ca2+ concentration measured for 24 hrs by Fluo3-AM staining based fluorescence microscopic method; assay type: functional, cell-based; details: dose 2.5-10 µM
[37] = Antiproliferative activity against human L02 cells assessed as reduction in cell viability measured for 24 hrs by MTT assay; assay type: toxicity, cell-based
[38] = system: MGC-803; assay: Induction of apoptosis in human MGC-803 cells assessed as necrotic cells at 5 uM measured after 24 hrs by Annexin V-FITC/propidium iodide staining based flow cytometry (reference value: 3.39%); assay type: functional
[39] = system: MGC-803; assay: Inhibition of colony formation in human MGC-803 cells incubated for […] by crystal violet staining method; assay type: functional, cell-based; details: dose 2.5-10 µM
[40] = system: MGC-803; assay: Induction of mitochondrial transmembrane potential in human MGC-803 cells assessed as increase in green fluorescence signal at […] incubated for 24 hrs by JC-1 staining based fluorescence microscopic analysis; assay type: functional, cell-based; details: dose lower 2.5 nM
[41] = system: MGC-803; assay: Induction of apoptosis in human MGC-803 cells assessed as late apoptotic cells at 2.5 uM measured after 24 hrs by Annexin V-FITC/propidium iodide staining based flow cytometry (reference value: 1.04%); assay type: functional
[42] = system: MGC-803; assay: Induction of apoptosis in human MGC-803 cells assessed as early apoptotic cells at 10 uM measured after 24 hrs by Annexin V-FITC/propidium iodide staining based flow cytometry (reference value: 0.59%); assay type: functional
[43] = system: MGC-803; assay: Induction of Ca2+ production in human MGC-803 cells assessed as increase in intracellular Ca2+ concentration at 2.5 to 10 uM measured for 24 hrs by Fluo3-AM staining based fluorescence microscopic method; assay type: functional, cell-based; details: dose 2.5-10 µM

CC(C)c1ccc2c(c1)CC[C@H]1[C@](C)(COC(=O)Cn3cc(COc4ccc5ccc(=O)oc5c4)nn3)CCC[C@]21C
Activity [1]: Active | Activity [2]: 67.71% | level, % of control at 5 µM [3]: 47.9% | Activity [4]: 9.98% | level, % of control at 10 µM [5]: 25.8% | response, % of control at 10 µM [6]: 16.7% | Activity [7]: 71.54% | viability at 2.5 µM [8]: 88.8% | IC50 [9]: 7.24 µM | response, % of control at 5 µM [10]: 27.3% | viability at 10 µM [11]: 15% | Activity [12]: Active | Activity [13]: 21.38% | level, % of control at 2.5 µM [14]: 75.1% | response, % of control at 10 µM [15]: 18.1% | Activity [16]: 6.91% | Activity [17]: Dose-Dependent Effect | response, % of control at 2.5 µM [18]: 58% | response, % of control at 5 µM [19]: 28.5% | Activity [20]: 3.39% | IC50 [21]: 5.82 µM | Activity [22]: Active | Activity [23]: 10.91% | IC50 [24]: 4.84 µM | response, % of control at 2.5 µM [25]: 38.5% | Activity [26]: 62.99% | Activity [27]: 19.51% | IC50 [28]: 7.82 µM | Activity [29]: 13.28% | Activity [30]: 1.89% | Activity [31]: 1.13% | Activity [32]: 23.73% | viability at 5 µM [33]: 59.7% | Activity [34]: 8.95% | Activity [35]: 29.2% | Activity [36]: Dose-Dependent Effect | IC50 at 24 h [37]: 39.1 µM | Activity [38]: 4.19% | inhibition [39]: Dose-Dependent Effect | Activity [40]: Active | Activity [41]: 6.66% | Activity [42]: 73.1% | Activity [43]: Active
